Measurements reported in patent US20260356823A1, “SODIUM CHANNEL REGULATOR AND USE THEREOF” (SHANGHAI HUILUN PHARMACEUTICAL CO., LTD., priority 2022, published 2026).

target: T1, human Nav1.8 (Homo sapiens, UniProt Q9Y5Y9); test: In vitro inhibition of Nav1.8, manual patch clamp on HEK293 cells stably expressing human Nav1.8; assay type: cell-based; settings: 100 nM, human Nav1.8, manual patch clamp
T1 construct: expressed in transfected cells
Method: Bioactivity Test 1: In Vitro Inhibition of Nav1.8 by the Compound
By using a manual patch clamp on HEK293 cells stably expressing human Nav1.8, currents on Nav1.8 before and after administration of the compound were compared after the currents on Nav1.8 were stable, to obtain the effect of the compound on the Nav1.8 channel.
The to-be-tested compound was dissolved in DMSO to prepare a 9 mM stock solution, which was taken and dissolved in extracellular fluid at a desired concentration on the day of testing. The extracellular fluid included the following ingredients (mM): NaCl, 137; KCl, 4; CaCl2, 1.8; MgCl2, 1; HEPES, 10; glucose, 10; and pH 7.4 (NaOH titration). All reagents were purchased from Sigma (St. Louis, MO).
The cells were clamped at −80 mV and depolarized with a sustained 10 ms square wave to 10 mV to obtain a current on Nav1.8. This process was repeated every 5 seconds. A maximum current caused by the square wave was detected. After the current is stable, the to-be-tested compound (dissolved in the extracellular fluid at the desired concentration) was perfused. After the current is stable, the strength of blocking Nav1.8 by the compound was calculated based on the currents before and after perfusion of the compound. pCLAMP 10 (Molecular Devices, Union City, CA) was used. That the current is stable means that the current changes over time within a limited range.

T1 sequence (Q9Y5Y9 whole entry): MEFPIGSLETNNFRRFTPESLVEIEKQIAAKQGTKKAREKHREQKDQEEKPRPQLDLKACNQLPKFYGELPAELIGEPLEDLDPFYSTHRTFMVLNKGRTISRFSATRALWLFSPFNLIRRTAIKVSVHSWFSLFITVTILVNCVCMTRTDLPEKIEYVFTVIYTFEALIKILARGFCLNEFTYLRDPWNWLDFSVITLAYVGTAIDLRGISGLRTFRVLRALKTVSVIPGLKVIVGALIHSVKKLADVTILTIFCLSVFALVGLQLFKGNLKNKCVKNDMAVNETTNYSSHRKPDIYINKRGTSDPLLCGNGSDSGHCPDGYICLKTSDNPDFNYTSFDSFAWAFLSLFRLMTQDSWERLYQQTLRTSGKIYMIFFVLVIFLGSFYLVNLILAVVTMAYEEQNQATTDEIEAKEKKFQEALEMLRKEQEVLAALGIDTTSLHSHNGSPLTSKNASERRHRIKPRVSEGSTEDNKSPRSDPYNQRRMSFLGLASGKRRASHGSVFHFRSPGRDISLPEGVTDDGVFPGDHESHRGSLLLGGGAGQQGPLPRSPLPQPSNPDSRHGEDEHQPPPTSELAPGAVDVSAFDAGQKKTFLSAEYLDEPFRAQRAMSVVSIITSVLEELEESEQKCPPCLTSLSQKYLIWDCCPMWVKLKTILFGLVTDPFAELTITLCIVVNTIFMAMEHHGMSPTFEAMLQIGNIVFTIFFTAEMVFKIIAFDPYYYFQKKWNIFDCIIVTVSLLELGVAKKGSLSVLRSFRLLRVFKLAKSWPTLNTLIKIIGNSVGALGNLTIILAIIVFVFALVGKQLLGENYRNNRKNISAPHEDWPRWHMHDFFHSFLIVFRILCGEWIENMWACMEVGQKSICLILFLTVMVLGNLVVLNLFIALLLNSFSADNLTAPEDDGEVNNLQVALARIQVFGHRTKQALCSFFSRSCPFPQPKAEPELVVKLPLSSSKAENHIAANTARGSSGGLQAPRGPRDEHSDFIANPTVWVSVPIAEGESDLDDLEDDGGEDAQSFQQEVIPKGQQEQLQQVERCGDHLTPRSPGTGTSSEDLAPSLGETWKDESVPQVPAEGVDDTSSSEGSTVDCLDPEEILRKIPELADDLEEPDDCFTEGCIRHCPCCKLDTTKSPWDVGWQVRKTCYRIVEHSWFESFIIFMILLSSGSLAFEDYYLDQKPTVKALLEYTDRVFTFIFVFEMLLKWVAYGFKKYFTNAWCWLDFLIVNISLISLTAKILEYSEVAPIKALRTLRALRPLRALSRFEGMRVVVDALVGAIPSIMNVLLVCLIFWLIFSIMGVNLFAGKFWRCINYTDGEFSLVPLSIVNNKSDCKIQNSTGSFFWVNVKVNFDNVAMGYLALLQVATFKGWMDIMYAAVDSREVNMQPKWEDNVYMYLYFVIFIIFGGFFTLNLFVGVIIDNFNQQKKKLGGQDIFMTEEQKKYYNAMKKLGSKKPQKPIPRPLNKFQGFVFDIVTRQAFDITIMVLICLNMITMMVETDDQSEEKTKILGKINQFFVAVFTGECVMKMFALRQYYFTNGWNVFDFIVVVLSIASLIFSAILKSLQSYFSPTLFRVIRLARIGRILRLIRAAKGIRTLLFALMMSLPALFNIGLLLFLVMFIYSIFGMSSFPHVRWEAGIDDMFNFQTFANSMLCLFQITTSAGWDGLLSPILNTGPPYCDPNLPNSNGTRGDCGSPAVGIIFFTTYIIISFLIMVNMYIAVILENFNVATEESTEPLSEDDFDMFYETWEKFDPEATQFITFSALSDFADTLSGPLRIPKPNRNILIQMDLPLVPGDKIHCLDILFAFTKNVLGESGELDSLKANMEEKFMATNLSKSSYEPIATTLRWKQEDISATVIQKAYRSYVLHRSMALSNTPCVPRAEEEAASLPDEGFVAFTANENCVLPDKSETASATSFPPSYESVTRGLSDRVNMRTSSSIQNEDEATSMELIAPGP

Inhibitory activity (inhibition/% at 100 nM concentration) | Compound
A (A ≥ 50) | rel-(2R,3S,4S,5R)-3-(3,4-difluoro-2-methoxyphenyl)-4,5-dimethyl-N-(4-oxo-3H-quinazolin-6-yl)-5-(trifluoromethyl)tetrahydrofuran-2-carboxamide [Example 4]

same assay, conditions: HEK293, 100 nM, human Nav1.8, manual patch clamp, read-out: Inhibitory activity (inhibition/% at 100 nM concentration)

inhibition at 0.1 µM [%] | Compound
≥ 50 | COc1c(C2C(C(=O)Nc3ccnc(OCC(O)CO)c3)OC3(C(F)(F)F)CCC23C)ccc(F)c1F [Example 95, rel-(1R,3R,4S,5R)-4-(3,4-difluoro-2-methoxyphenyl)-N-(2-(S)-2,3-dihydroxypropoxypyridin-4-yl)-5-methyl-1-trifluoromethyl-2-oxabicyclo[3.2.0]heptane-3-carboxamide]
≥ 50 | COc1c([C@H]2[C@H](C(=O)Nc3ccnc(N4CCN(C)CC4=O)c3)O[C@]3(C(F)(F)F)CC[C@]23C)ccc(F)c1F (relative stereo) [Example 100, rel-(1R,3R,4S,5R)-4-(3,4-difluoro-2-methoxyphenyl)-5-methyl-N-(2-(4-methyl-2-oxopiperazin-1-yl)pyridin-4-yl)-1-(trifluoromethyl)-2-oxabicyclo[3.2.0]heptane-3-carboxamide]
≥ 50 | COc1c([C@H]2[C@H](C(=O)Nc3ccnc(S(C)(=O)=O)c3)O[C@]3(C(F)(F)F)CC[C@]23C)ccc(F)c1F (relative stereo) [Example 101, rel-(1R,3R,4S,5R)-4-(3,4-difluoro-2-methoxyphenyl)-5-methyl-N-(2-methylsulfonyl)pyridin-4-yl)-1-trifluoromethyl-2-oxabicyclo[3.2.0]heptane-3-carboxamide]
≥ 50 | COc1c(C2C(C(=O)Nc3ccc(C(N)=O)c(C(N)=O)c3)OC3(C(F)(F)F)CCC23C)ccc(F)c1F [Example 86, rel-4-((1R,3R,4S,5R)-4-(3,4-difluoro-2-methoxyphenyl)-5-methyl-1-(trifluoromethyl)-2-oxabicyclo[3.2.0]heptane-3-formylamino)phthalamide]
≥ 50 | COc1c([C@H]2[C@H](C(=O)Nc3ccnc(C(O)CF)c3)O[C@]3(C(F)(F)F)CC[C@]23C)ccc(F)c1F (relative stereo) [Example 89, rel-(1R,3R,4S,5R)-4-(3,4-difluoro-2-methoxyphenyl)-N-(2-(2-fluoro-1-hydroxyethyl)pyridin-4-yl)-5-methyl-1-(trifluoromethyl)-2-oxabicyclo[3.2.0]heptane-3-carboxamide]
≥ 50 | CCNS(=O)(=O)c1cc(NC(=O)[C@@H]2O[C@@](C)(C(F)(F)F)[C@@H](C)[C@H]2c2ccc(F)c(F)c2OC)ccn1 (relative stereo) [Example 83, rel-(2R,3S,4S,5R)-3-(3,4-difluoro-2-methoxyphenyl)-N-(2-(N-ethylsulfamoyl)pyridin-4-yl)-4,5-dimethyl-5-(trifluoromethyl)tetrahydrofuran-2-carboxamide]
≥ 50 | COc1c([C@H]2C(C(=O)Nc3ccc4c(c3)S(=O)(=O)NC4=O)O[C@@](C)(C(F)(F)F)[C@H]2C)ccc(F)c1F (relative stereo) [Example 79, rel-(2R,3S,4S,5)-3-(3,4-difluoro-2-methoxyphenyl)-4,5-dimethyl-5-(trifluoromethyl)-N-(1,1,3-trioxo-2,3-dihydro-1λ6-benzo[d][1,2]thiazol-6-yl)tetrahydrofuran-2-carboxamide]
≥ 50 | COc1c([C@H]2C(C(=O)Nc3ccnc(OC[C@H](O)CO)c3)O[C@]3(C(F)(F)F)CC[C@]23C)ccc(F)c1F (relative stereo) [Example 96, rel-(1R,3R,4S,5R)-4-(3,4-difluoro-2-methoxyphenyl)-N-(2-(R)-2,3-dihydroxypropoxypyridin-4-yl)-5-methyl-1-trifluoromethyl-2-oxabicyclo[3.2.0]heptane-3-carboxamide]
≥ 50 | CN=S(C)(=O)c1cc(NC(=O)C2O[C@]3(C(F)(F)F)CC[C@]3(C)[C@H]2c2ccc(F)c(F)c2OC)ccn1 (relative stereo) [Example 94, rel-(1R,3R,4S,5R)-4-(3,4-difluoro-2-methoxyphenyl)-N-(2-(N,S-dimethylsulfonyl)pyridin-4-yl)-5-methyl-1-(trifluoromethyl)-2-oxabicyclo[3.2.0]heptane-3-carboxamide]
≥ 50 | COc1c(C2[C@H](C(=O)Nc3ccnc(S(=O)(=O)NCC(F)(F)F)c3)O[C@@](C)(C(F)(F)F)[C@H]2C)ccc(F)c1F (relative stereo) [Example 84, rel-(2R,3S,4S,5R)-3-(3,4-difluoro-2-methoxyphenyl)-4,5-dimethyl-N-(2-(N-(2,2,2-trifluoroethyl)sulfamoyl)pyridin-4-yl)-5-trifluoromethyl tetrahydrofuran-2-carboxamide]

More lines, now with the values behind:

Compound | inhibition at 0.1 µM [%]
COc1c([C@H]2[C@H](C(=O)Nc3ccc(C(N)=O)c(C(N)=O)c3)O[C@@](C)(C(F)(F)F)[C@H]2C)ccc(F)c1F (relative stereo) [Example 30, rel-(2R,3S,4S,5R)-4-({[3-(3,4-difluoro-2-methoxyphenyl)-4,5-dimethyl-5-(trifluoromethyl)tetrahydrofuran-2-yl]carbonyl}amino)benzene-1,2-dicarboxamide] | ≥ 50
COc1c([C@H]2[C@H](C(=O)Nc3ccc4c(c3)C(=O)NC4=O)O[C@@](C)(C(F)(F)F)[C@H]2C)ccc(F)c1F (relative stereo) [Example 10, rel-(2R,3S,4S,5R)-3-(3,4-difluoro-2-methoxyphenyl)-N-(1,3-dioxo-2,3-dihydro-1H-isoindol-5-yl)-4,5-dimethyl-5-(trifluoromethyl)tetrahydrofuran-2-carboxamide] | ≥ 50
COc1c([C@H]2[C@H](C(=O)Nc3ccc4c(=O)[nH][nH]c(=O)c4c3)O[C@@](C)(C(F)(F)F)[C@H]2C)ccc(F)c1F (relative stereo) [Example 12] | ≥ 50
COc1c([C@H]2[C@H](C(=O)Nc3ccc(C#N)c(C(N)=O)c3)O[C@@](C)(C(F)(F)F)[C@H]2C)ccc(F)c1F (relative stereo) [Example 25, rel-(2R,3S,4S,5R)—N-(3-carbamoyl-4-cyanophenyl)-3-(3,4-difluoro-2-methoxyphenyl)-4,5-dimethyl-5-(trifluoromethyl)tetrahydrofuran-2-carboxamide] | ≥ 50
COc1c([C@H]2[C@H](C(=O)Nc3ccnc(C(N)=S)c3)O[C@@](C)(C(F)(F)F)[C@H]2C)ccc(F)c1F (relative stereo) [Example 22, rel-(2R,3S,4S,5R)—N-[2-(aminothiomethylidene)pyridin-4-yl]-3-(3,4-difluoro-2-methoxyphenyl)-4,5-dimethyl-5-(trifluoromethyl)tetrahydrofuran-2-carboxamide] | ≥ 50
COc1c([C@H]2[C@H](C(=O)Nc3cc[n+](C)c(C(N)=O)c3)O[C@@](C)(C(F)(F)F)[C@H]2C)ccc(F)c1F (relative stereo) [Example 16, rel-2-carbamoyl-4-((2R,3S,4S,5R)-3-(3,4-difluoro-2-methoxyphenyl)-4,5-dimethyl-5-(trifluoromethyl)tetrahydrofuran-2-carboxamido)-1-methylpyridin-1-onium iodide] | ≥ 50
COc1c([C@H]2[C@H](C(=O)Nc3ccc(=O)[nH]n3)O[C@@](C)(C(F)(F)F)[C@H]2C)ccc(F)c1F (relative stereo) [Example 27, rel-(2R,3S,4S,5R)-3-(3,4-difluoro-2-methoxyphenyl)-4,5-dimethyl-N-(6-oxo-1H-1,2-dioxine-3-yl)-5-(trifluoromethyl)tetrahydrofuran-2-carboxamide] | ≥ 50
COc1c([C@H]2[C@H](C(=O)Nc3ccnc(C(=O)N4CCCO4)c3)O[C@@](C)(C(F)(F)F)[C@H]2C)ccc(F)c1F (relative stereo) [Example 32, rel-(2R,3S,4S,5R)-3-(3,4-difluoro-2-methoxyphenyl)-4,5-dimethyl-N-[2-(tetrahydroisoxazol-2-ylcarbonyl)pyridin-4-yl]-5-(trifluoromethyl)tetrahydrofuran-2-carboxamide] | ≥ 50
COc1c([C@H]2[C@H](C(=O)Nc3ccc4c(c3)C(=O)OOC4N)O[C@@](C)(C(F)(F)F)[C@H]2C)ccc(F)c1F (relative stereo) [Example 13, rel-(2R,3S,4S,5R)—N-(1-amino-4-oxo-3H-benzo[2,1-d][1,2]dioxine-6-yl)-3-(3,4-difluoro-2-methoxyphenyl)-4,5-dimethyl-5-(trifluoromethyl)tetrahydrofuran-2-carboxamide] | ≥ 50
COc1c([C@H]2[C@H](C(=O)Nc3ccnc4c(N)nccc34)O[C@@](C)(C(F)(F)F)[C@H]2C)ccc(F)c1F [Example 7] | ≥ 50
COc1c([C@H]2[C@H](C(=O)Nc3cc(F)[nH]c(=O)c3)O[C@@](C)(C(F)(F)F)[C@H]2C)ccc(F)c1F (relative stereo) [Example 24, rel-(2R,3S,4S,5R)-3-(3,4-difluoro-2-methoxyphenyl)-N-(6-fluoro-2-oxo-1H-pyridin-4-yl)-4,5-dimethyl-5-(trifluoromethyl)tetrahydrofuran-2-carboxamide] | ≥ 50
